# Experiments:
# KB = assay: Cytotoxicity against human KB cells assessed as cell growth inhibition incubated for 48 hrs by MTT assay; type: functional, cell-based
# A549 = assay: Cytotoxicity against human A549 cells assessed as reduction in cell viability measured after 48 hrs by MTT assay; type: functional, cell-based; details: A549, 48 h
# B16 = assay: Cytotoxicity against mouse B16 cells assessed as reduction in cell viability measured after 96 hrs by microplate reader based MTT assay; type: functional
# HEp-2 = assay: Cytotoxicity against human HEp-2 cells assessed as reduction in cell growth; type: functional, cell-based
smiles,measurement,setting,value
CC[C@]12CCCN3CCc4c(n(c5ccccc45)[C@@](O)(C(=O)OC)C1)[C@@H]32 [VINCAMINE],IC50,KB,232 µM
same,IC50,A549,310 µM
same,IC50,B16,68.9 µM
same,IC50,HEp-2,274 µM

# Source: ChEMBL document CHEMBL5325510, “Vincamine, from an antioxidant and a cerebral vasodilator to its anticancer potential” (Bioorg Med Chem, 2023)
